In US20230000813A1, “COMPOUND FOR THE TREATMENT OF BOVINE OR SWINE RESPIRATORY DISEASE” (Intervet Inc., priority 2016, published 2023):
Converted amounts (≈) assume the structure as drawn.

Columns and labels:
Assay in all cases: MIC, broth-microdilution (CLSI VET01-A4)
Assay type in all cases: cell-based
[1] = system: Mannheimia haemolytica MH 10720 (154, BRD field isolate); settings: Mannheimia haemolytica MH 10720
Outline: (§1)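 Compounds were tested in microdilution trays as twofold serial dilutions. The MIC was taken as the lowest concentration with no turbidity visible to the unaided eye, and results were interpreted per CLSI VET01-S3.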

[2] = system: Mannheimia haemolytica MH 12587 (1071, BRD field isolate, macrolide-resistance: erm+, E+); settings: Mannheimia haemolytica MH 12587, macrolide-resistant
Outline: as §1

[3] = system: Mannheimia haemolytica MH 6357 (M7/2, reference strain, cattle infection strain); settings: Mannheimia haemolytica MH 6357; read-out: MIC MH 6357
Outline: as §1

[4] = system: Mannheimia haemolytica MH 6374 (ATCC 33396, reference strain); settings: Mannheimia haemolytica MH 6374; read-out: MIC MH 6374
Outline: as §1

[5] = system: Pasteurella multocida PM 10775 (080130003051, BRD field isolate); settings: Pasteurella multocida PM 10775
Outline: as §1

[6] = system: Pasteurella multocida PM 12080 (IV102277-0093, BRD field isolate); settings: Pasteurella multocida PM 12080; for MIC: read-out: MIC PM 12080
Outline: as §1

[7] = system: Pasteurella multocida PM 6267 (P 2225 (L386), reference strain, mouse infection strain); settings: Pasteurella multocida PM 6267
Outline: as §1

[8] = system: Pasteurella multocida PM 6391 (ATCC 43137, reference strain); settings: Pasteurella multocida PM 6391; for MIC: read-out: MIC PM 6391
Outline: as §1

[9] = system: Mannheimia haemolytica MH 13065 (XB0446-6003.9, BRD field isolate)
Outline: (§2)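 Broth microdilution per CLSI VET01-A4 using doubling dilution series of compound. MIC taken as the lowest concentration with no turbidity visible to the unaided eye, interpreted per CLSI VET01-S3.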

[10] = system: Mannheimia haemolytica MH 13093 (XB0472-6014.1, BRD field isolate)
Outline: as §2

SMILES	MIC MH 10720 [1]	MIC MH 12587 [2]	MIC [3]	MIC [4]	MIC PM 10775 [5]	MIC PM 12080 [6]	MIC PM 6267 [7]	MIC PM 6391 [8]	MIC [9]	MIC [10]	MIC [8]	MIC [6]
CC(C)C(NC(=O)c1ccc(C#Cc2ccc(CNCc3nccs3)cc2)cc1)C(=O)NO (stereo not drawn) [Compound 341]	<=0.1 μM	0.4 µM (≈ 0.185 µg/mL)	0.2 µM (≈ 0.0925 µg/mL)	0.4 µM (≈ 0.185 µg/mL)	<=0.1 μM	<=0.1 μM	<=0.1 μM	<=0.1 μM	0.2 µM (≈ 0.0925 µg/mL)	0.4 µM (≈ 0.185 µg/mL)	–	–
CC(C)(N)C(NC(=O)c1ccc(C#Cc2ccc(CNCC(F)(F)F)cc2)cc1)C(=O)NO (racemic) [Compound 623]	<=0.1 μM	1.6 µM (≈ 0.74 µg/mL)	0.8 µM (≈ 0.37 µg/mL)	0.4 µM (≈ 0.185 µg/mL)	<=0.1 μM	<=0.1 μM	<=0.1 μM	–	0.8 µM (≈ 0.37 µg/mL)	0.8 µM (≈ 0.37 µg/mL)	0.2 µM (≈ 0.0925 µg/mL)	–
CSC(C)(C)[C@H](NC(=O)c1ccc(C#Cc2ccc(CNCc3ccco3)cc2)cc1)C(=O)NO [Compound 596]	<=0.1 μM	0.8 µM (≈ 0.393 µg/mL)	0.4 µM (≈ 0.197 µg/mL)	0.8 µM (≈ 0.393 µg/mL)	<=0.1 μM	<=0.1 μM	<=0.1 μM	–	0.4 µM (≈ 0.197 µg/mL)	0.4 µM (≈ 0.197 µg/mL)	0.2 µM (≈ 0.0983 µg/mL)	–
Cc1cnc(CNCc2ccc(C#Cc3ccc(C(=O)NC(C(=O)NO)C(C)(C)N)cc3)s2)o1 (racemic) [Compound 636]	<=0.1 μM	1.6 µM (≈ 0.771 µg/mL)	0.8 µM (≈ 0.385 µg/mL)	0.4 µM (≈ 0.193 µg/mL)	<=0.1 μM	–	<=0.1 μM	–	1.6 µM (≈ 0.771 µg/mL)	0.8 µM (≈ 0.385 µg/mL)	0.4 µM (≈ 0.193 µg/mL)	0.4 µM (≈ 0.193 µg/mL)
C=CCNCc1ccc(C#Cc2ccc(C(=O)NC(C(=O)NO)C(C)(C)S(C)(=O)=O)cc2)cc1 (stereo not drawn) [C. 602]	<=0.1 μM	1.6 µM (≈ 0.774 µg/mL)	1.6 µM (≈ 0.774 µg/mL)	0.8 µM (≈ 0.387 µg/mL)	<=0.1 μM	<=0.1 μM	<=0.1 μM	<=0.1 μM	0.8 µM (≈ 0.387 µg/mL)	0.8 µM (≈ 0.387 µg/mL)	–	–
CC(C)(C(NC(=O)c1ccc(C#Cc2ccc(CNCc3ccncc3)cc2)cc1)C(=O)NO)S(C)(=O)=O (stereo not drawn) [C. 607]	<=0.1 μM	0.8 µM (≈ 0.428 µg/mL)	0.4 µM (≈ 0.214 µg/mL)	0.4 µM (≈ 0.214 µg/mL)	<=0.1 μM	<=0.1 μM	<=0.1 μM	<=0.1 μM	0.4 µM (≈ 0.214 µg/mL)	0.4 µM (≈ 0.214 µg/mL)	–	–
CC(C)C(NC(=O)c1ccc(C#Cc2ccc(CNCc3ccco3)cc2)cc1)C(=O)NO (stereo not drawn) [Compound 290]	<=0.1 μM	0.4 µM (≈ 0.178 µg/mL)	0.2 µM (≈ 0.0891 µg/mL)	0.4 µM (≈ 0.178 µg/mL)	<=0.1 μM	–	<=0.1 μM	–	0.4 µM (≈ 0.178 µg/mL)	0.4 µM (≈ 0.178 µg/mL)	0.4 µM (≈ 0.178 µg/mL)	0.2 µM (≈ 0.0891 µg/mL)
CC(C)([C@H](NC(=O)c1ccc(C#Cc2ccc(CNCc3ccnc(Cl)c3)cc2)cc1)C(=O)NO)S(C)(=O)=O [Compound 614]	<=0.1 μM	0.8 µM (≈ 0.455 µg/mL)	0.4 µM (≈ 0.228 µg/mL)	0.4 µM (≈ 0.228 µg/mL)	<=0.1 μM	<=0.1 μM	<=0.1 μM	<=0.1 μM	0.2 µM (≈ 0.114 µg/mL)	0.4 µM (≈ 0.228 µg/mL)	–	–
CC(C)([C@@H](NC(=O)c1ccc(C#Cc2ccc(CNCc3nccs3)cc2)cc1)C(=O)NO)S(C)(=O)=O [C. 620]	<=0.1 μM	0.4 µM (≈ 0.216 µg/mL)	0.2 µM (≈ 0.108 µg/mL)	0.2 µM (≈ 0.108 µg/mL)	<=0.1 μM	<=0.1 μM	<=0.1 μM	<=0.1 μM	0.2 µM (≈ 0.108 µg/mL)	0.2 µM (≈ 0.108 µg/mL)	–	–
